The source of these data is US8940766B2, “Methods for preventing and/or treating lysosomal storage disorders” (Amicus Therapeutics, Inc., priority 2009, dated 2015).

The target in this test is T1, GCase (Mus musculus, UniProt P17439).
T1 construct: Liver, spleen, lung, and brain tissues were removed; from tissue; host or cells: brain, spleen, liver, lung of C57BL/6 mice
T1 sequence (P17439 20-515): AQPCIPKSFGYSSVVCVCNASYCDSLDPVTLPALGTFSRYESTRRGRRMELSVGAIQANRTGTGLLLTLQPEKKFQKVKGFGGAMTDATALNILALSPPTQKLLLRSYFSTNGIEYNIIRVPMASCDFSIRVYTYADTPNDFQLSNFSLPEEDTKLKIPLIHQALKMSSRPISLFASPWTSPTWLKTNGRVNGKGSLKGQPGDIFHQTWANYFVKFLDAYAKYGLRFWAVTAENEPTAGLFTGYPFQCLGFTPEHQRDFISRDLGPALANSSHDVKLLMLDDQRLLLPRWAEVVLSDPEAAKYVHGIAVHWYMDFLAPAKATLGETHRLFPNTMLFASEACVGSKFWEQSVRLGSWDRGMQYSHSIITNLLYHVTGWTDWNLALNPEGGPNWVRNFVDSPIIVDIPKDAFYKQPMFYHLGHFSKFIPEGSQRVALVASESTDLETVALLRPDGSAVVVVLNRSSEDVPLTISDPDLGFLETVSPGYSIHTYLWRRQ
The test can be described thus: GCase enhancement in tissues of orally dosed mice. Conditions: for GCase increase: nine doses over 2 weeks, 24-hour washout. It counts as in vivo, mice (C57BL/6). Here is the method: The ability of orally administered test compounds (the hydrochloride salt form of Compound A and Compound B) to elevate GCase levels as compared to reference compound, IFG-tartrate, was assessed in mice. […] Seven animals were used per dose. The dosing solutions were prepared in water. Compounds were administered over 2 weeks as follows: week 1, Mon-Fri (On), Sat-Sun (Off); week 2, Mon-Thu (On); necropsy on Friday. Thus, a total of 9 doses (dosing solutions prepared fresh every day) were given to each mouse, with a 24-hour washout between the last dose and necropsy.
Plasma was collected by spinning blood at 2700 g for 10 minutes at 4° C. Liver, spleen, lung, and brain tissues were removed, washed in cold PBS, blotted dry, flash frozen on dry ice, and stored at −80° C. until analysis. GCase levels were measured by homogenizing approximately 50 mg tissue in 500 μL McIlvane (MI) buffer (100 mM sodium citrate, 200 mM sodium phosphate dibasic, 0.25% sodium taurocholate, and 0.1% Triton X-100, pH 5.2) at pH 5.2 for 3-5 seconds on ice with a micro homogenizer. Homogenates were then incubated at room temperature without and with 2.5 mM conduritol-B-epoxide (CBE) for 30 min. Finally, 3.7 mM 4-methylumbeliferryl-β-glucoside (4-MUG) substrate was added and incubated at 37° C. for 60 min. Reactions were stopped by addition of 0.4 M glycine, pH 10.6. Fluorescence was measured on a plate reader for 1 sec/well using 355 nm excitation and 460 nm emission. Total protein was determined in lysates using the MicroBCA kit according to the manufacturer's instructions. A 4-methylumbelliferone (4-MU) standard curve ranging from 1.0 nM to 50 μM was run in parallel for conversion of raw fluorescence data to absolute GCase activity (in the presence and absence of CBE) and expressed as nanomoles of 4-MU released per milligram of protein per hour (nmol/mg protein/hr). GCase levels and protein levels were calculated using Microsoft Excel (Redmond, Wash.) and GraphPad Prism version 4.02.

Setting [1] is: mice, nine p.o. doses over 2 weeks, result in words.

For `O[C@@H]1[C@@H](CCl)CNC[C@H]1O` [Compound B, (3R,4R,5S)-5-(chloromethyl)piperidine-3,4-diol], the GCase increase reads like this: (brain, 10 mg/kg (free base equivalent) p.o.) 2.3 -fold; (brain, 100 mg/kg (free base equivalent) p.o.) 3.5 -fold; (spleen, 10 mg/kg (free base equivalent) p.o.) 1.4 -fold; (spleen, 100 mg/kg (free base equivalent) p.o.) 2.2 -fold. In addition, the “GCase enhancement at lower doses compared to IFG-tartrate” value under setting [1] is listed as “unexpectedly greater than that observed with IFG-tartrate even when far lower doses”. Moreover, the “GCase enhancement in brain, spleen, liver and lung compared to control or IFG-tartrate” value under setting [1] was “statistically significant greater GCase enhancement in brain, spleen, liver and lung as compared to mice administered control or IFG-tartrate”.
